Laboratory results taken from US6248738A, “Isoquinolines as urokinase inhibitors” (Pfizer Inc., priority 1997, dated 2001).

Columns and labels:
human plasmin = human plasmin (Homo sapiens, UniProt P00747); experiment: Inhibition of human plasmin (substrate Chromozym-PL); type: biochemical; conditions: selectivity for uPA over human plasmin
human urokinase = biological target: T1, human urokinase (Homo sapiens, UniProt P00749); experiment: Inhibition of human urokinase (HMWT human urokinase, substrate S-2444); type: biochemical; conditions: S-2444 substrate, read-out: Ki uPA
T1 construct: the urokinase used was HMWT Human Urokinase (Calbiochem 672081); purchased Calbiochem 672081

human tPA = human tPA (Homo sapiens, UniProt P00750); experiment: Inhibition of human tPA (substrate S-2288, tPA stimulator); type: biochemical; conditions: selectivity for uPA over human tPA
Chain of human tPA (P00750 33-562): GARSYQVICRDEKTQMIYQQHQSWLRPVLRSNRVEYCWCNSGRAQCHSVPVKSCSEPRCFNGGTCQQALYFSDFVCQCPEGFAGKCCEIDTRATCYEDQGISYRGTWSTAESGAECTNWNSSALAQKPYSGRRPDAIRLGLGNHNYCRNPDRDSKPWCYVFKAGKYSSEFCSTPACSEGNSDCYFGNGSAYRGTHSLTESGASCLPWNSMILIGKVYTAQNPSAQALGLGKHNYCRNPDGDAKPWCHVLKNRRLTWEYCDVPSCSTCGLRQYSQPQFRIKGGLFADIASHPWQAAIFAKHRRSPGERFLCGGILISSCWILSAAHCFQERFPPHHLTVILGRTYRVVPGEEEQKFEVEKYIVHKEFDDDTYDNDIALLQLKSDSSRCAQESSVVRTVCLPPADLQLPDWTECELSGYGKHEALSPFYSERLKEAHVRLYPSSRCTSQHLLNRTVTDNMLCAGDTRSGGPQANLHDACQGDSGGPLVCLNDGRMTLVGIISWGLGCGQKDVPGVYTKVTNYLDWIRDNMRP

[1] = tested on: angiogenesis/capillary network formation; conditions: literature; cited from earlier work
tumour metastasis = conditions: literature; cited from earlier work

Chain of human plasmin (P00747 97-810): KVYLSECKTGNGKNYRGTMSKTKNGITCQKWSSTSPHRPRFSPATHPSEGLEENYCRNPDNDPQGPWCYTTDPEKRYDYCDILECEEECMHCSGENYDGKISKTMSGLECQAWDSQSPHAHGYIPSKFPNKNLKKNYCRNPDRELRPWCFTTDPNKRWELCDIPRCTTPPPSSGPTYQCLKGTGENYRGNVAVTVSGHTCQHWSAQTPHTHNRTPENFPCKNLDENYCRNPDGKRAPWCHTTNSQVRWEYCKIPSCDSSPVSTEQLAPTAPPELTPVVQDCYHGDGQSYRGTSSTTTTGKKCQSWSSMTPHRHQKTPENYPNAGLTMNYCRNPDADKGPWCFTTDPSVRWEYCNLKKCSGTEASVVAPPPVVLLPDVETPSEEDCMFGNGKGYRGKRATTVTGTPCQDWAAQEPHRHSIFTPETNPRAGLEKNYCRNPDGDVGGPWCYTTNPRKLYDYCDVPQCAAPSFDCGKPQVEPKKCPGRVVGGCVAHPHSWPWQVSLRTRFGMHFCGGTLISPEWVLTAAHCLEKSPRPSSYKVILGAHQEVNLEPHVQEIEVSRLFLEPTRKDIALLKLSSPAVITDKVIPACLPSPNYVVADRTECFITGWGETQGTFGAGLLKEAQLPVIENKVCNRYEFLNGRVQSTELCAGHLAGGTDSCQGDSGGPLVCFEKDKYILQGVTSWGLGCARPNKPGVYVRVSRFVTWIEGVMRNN

vs. plasmin* (selectivity figures) (human plasmin) | Ki (human urokinase) [nM] | vs. tPA* (selectivity figures) (human tPA) | Compound | inhibition of angiogenesis/capillary network formation in vitro [1] | inhibition of tumour metastasis/invasion in vivo (tumour metastasis)
204 | 249 | 380 | NC(N)=Nc1nccc2ccc(Br)cc12 [Example 15] | – | –
– | – | – | N=C(N)NC(=O)c1nc(Cl)c(N)nc1N [Amiloride] | angiogenesis/capillary network formation in vitro | inhibit tumour metastasis in vivo
68 | 400 | 88 | NC(N)=Nc1nccc2ccc(/C=C/c3ccccc3)cc12 [Example 19] | – | –
